# In US12030908B2, “Antimicrobial compounds, compositions, and uses thereof” (Lakewood Amedex, Inc., priority 2017, dated 2024):
# Where two headings read alike, the source gives them in different places.
# What was measured:
# [1] = test system: methicillin resistant Staphylococcus aureus (USA300); assay type: in vivo, SKH-1 hairless mice; settings: for decrease in CFU burden: 6 hours post challenge
# Description: SKH-1 hairless mice have the outer layer of skin cells removed by stripping with 7 applications and removals of surgical tape. Immediately following tape stripping, mice receive a topical inoculation of methicillin resistant Staphylococcus aureus (USA300) at a targeted challenge of 6.0 log10 CFU. Four hours following challenge, mice are treated with test articles or vehicle controls, and at two hours following treatment, mice have skin harvested for CFU burden enumeration.
# SKH-1 mice are obtained from Charles River Laboratories. The age of the mice on Day 0 is approximately 6-8 weeks. Only female mice are selected for the study. Animals are handled in accordance with AUP number TP-18. Mice are housed in solid-bottom micro-isolator cages on stainless steel racks. Animals are fed irradiated Teklad Global 2918 Rodent Diet and water ad libitum. Bedding is provided in the form of irradiated Teklad ⅛″ corn cob bedding 7902. Animals are maintained in a bioBubble® Clean Room which provides H.E.P.A filtered air into the bubble environment at 100 complete air changes per hour. The environment is controlled to a temperature range of 74°±5° F. and a humidity range of 30-70%. Fluorescent lighting provides illumination for 12 hours per day. Mice are acclimated for a minimum of 24 hours prior to study start. The animals are observed for general health and acceptability for use in this study. Only animals deemed healthy are included in this study.
# On Day 0 immediately prior to infection, each mouse is anesthetized using isoflurane and the dorsal area receives 7 applications and removals of Nexcare™ (3M) surgical tape in order to remove the outermost epidermal layer of skin.
# The challenge microorganism is prepared. Methicillin resistant Staphylococcus aureus (USA300) is grown overnight at 37° C. at ambient atmosphere trypticase soy agar plates supplemented with 5% sheep blood cells. The culture is aseptically swabbed and transferred to tubes sterile water until optical density reaches approximately 0.75 at 600 nm. The cultures are diluted to provide challenge inoculate of 6.0 log10 CFU per mouse in a volume of 100 μL. Inoculum count is estimated before inoculation by optical density and confirmed after inoculation by dilution and back count.
# On Day 0 at 0 hours, animals are anesthetized using isoflurane, brought to a surgical plane, and infected with bacteria via topical application, spread in the tape stripped area of approximately 0.75″×0.75″. Challenge is allowed to dry slightly before mice are brought out of anesthesia.
# The test articles are prepared in a manner to minimize endotoxin and bacterial contamination. A 10% (100 mg/mL) solution of Nu-8 is prepared in 0.9% sterile saline. A 20% Nu-8 solution for 50/50 mixture in a hydrogel vehicle (for 10% final Nu-8 concentration) is made using sterile water. Citric acid is used to adjust the solutions to pH 3.5. The test articles are stored at 4° C.
# A 0.9% sterile saline adjusted to pH 3.5 with citric acid is prepared as a vehicle/negative control and stored at room temperature. A hydrogel vehicle adjusted to pH 3.5 with citric acid is prepared as another vehicle/negative control. The hydrogel vehicle is prepared by mixing equal volumes of hydrogel and 0.9% sterile saline with final pH of the mixture adjusted to pH 3.5.
# At exactly four hours following challenge, mice in Groups 2-5 receive a topical application of Nu-8 (in either saline or hydrogel vehicle), saline vehicle, or gel vehicle, in a volume of […] spread on the dorsal area previously stripped and inoculated with bacteria. […] Mice are housed individually following treatment until harvest time.
# Mice are observed at least twice daily during the study period and are randomly assigned to experimental groups as shown in TABLE 10. At the time indicated in TABLE 10, mice are humanely euthanized via CO2 overexposure. Mice are harvested at 6 hours post challenge (2 hours post-treatment). […]
# [2] = test system: Escherichia coli (strain CFT073, TPPS 1041); assay: Initial urinary tract infection model in BALB/c mice, transurethral treatment (Example 9); assay type: in vivo; settings: pH 3.5, 1025 mg/kg transurethral
# Text: Female BALB/c mice (20-22 g) ordered from Envigo are acclimated to housing conditions and handled in accordance with Animal Use Protocol (AUP) number TP-08. Animals are fed irradiated Teklad Global 29 18 Rodent Diet and water ad libitum. Mice are housed 6/cage in static cages with irradiated ⅛″ Teklad corn cobbedding 7902 inside bioBubble® clean rooms that provide H.E.P.A filtered air into the bubble environment at 100 complete air changes per hour. The environment is controlled to a temperature range of 74°±4° F. and a humidity range of 30-70%. All procedures carried out in this experiment are conducted in compliance with the laws, regulations, and guidelines of the National Institutes of Health and with the approval of the TransPharm Preclinical Solutions Animal Care and Use Committee.
# A clinical isolate of Escherichia coli (strain CFT073, TPPS 1041) are procured from the University of Michigan.
# The organism is grown overnight at 37° C. in ambient atmosphere on trypticase soy agar plates supplemented with 5% sheep blood cells. The culture is aseptically swabbed and transferred to tubes of trypticase soy broth. The optical density is determined at 600 nm. The culture is diluted to provide an inoculum of approximately 7.5 log10 CFU per mouse in a volume of 30 μL. Instillation of the bacterial challenge constituted time 0 hour for the study. Inoculum counts are estimated before inoculation by optical density and confirmed after inoculation by dilution and back counts.
# One hour prior to bacterial challenge, water is removed from animal cages. […]
# The primary endpoint used to assess progress of the infection is mean bacterial burden per gram of urinary bladder tissue. […] Colony forming units (CFU) are enumerated and the total bacterial burden per gram of urinary bladder tissue homogenate is calculated.
# The geometric mean CFU, along with standard error of the mean (SEM), are calculated using Microsoft Excel and bar charts are prepared for the data using GraphPad Prism v. […]
compound,measurement,setting,value
"CCCCOP(=O)(O)OC[C@H]1O[C@@H](n2ccc(N)nc2=O)C[C@@H]1OP(=O)(O)OCCCC [Nu-8, sodium ((2R,3S,5R)-5-(4-amino-2-oxopyrimidin-1(2H)-yl)-3-((butoxyoxidophosphor-yl)oxy)tetrahydrofuran-2-yl)methyl butyl phosphate]",decrease in CFU burden,"[1]; 10% Nu-8 in hydrogel pH 3.5, topical",~1.0 log10 reduction
same,decrease in CFU burden,"[1]; 10% Nu-8 in saline pH 3.5, topical",~1.0 log10 reduction
same,percentage reduction compared to the controls (FIG. 3),[1]; Nu-8 gel,87%
same,colony forming units (FIG. 1),"[1]; Nu-8 hydrogel, two hours post treatment","approximately 40,000 CFU per square millimeter"
same,reduction in bacteria vs saline and gel controls,"[1]; Nu-8 in saline or hydrogel, two hours post treatment",ten-fold
same,colony forming units (FIG. 1),"[1]; Nu-8 in saline, two hours post treatment","approximately 30,000 CFU per square millimeter"
same,percentage reduction compared to the controls (FIG. 3),[1]; Nu-8 saline,90%
same,acute adverse events associated with the treatments,"[1]; topical, 10% Nu-8 in saline or hydrogel",None of the study subjects displayed any acute adverse events
same,mean bladder CFU burden,[2]; 20 minutes post-treatment,2.9 log10
same,mean bladder CFU burden,[2]; 60 minutes post-treatment,3.7 log10 CFU
